Measurements from patent publication US20240158446A1, “CYCLIC COMPOUND HAVING SELECTIVE INHIBITORY ACTION ON KRAS OVER HRAS AND NRAS” (CHUGAI SEIYAKU KABUSHIKI KAISHA, priority 2021, published 2024).
Like-named read-outs stand apart in the source and are kept apart here. Where a SMILES comes first, the peptide text is derived from it. Bridges are numbered along the chain shown (N, C = ends). [ ]: non-standard residue; d: D form. The star is where a group is joined. hPhe(3-Cl-4-CF3) = N[C@@H](CCc1ccc(C(F)(F)F)c(Cl)c1)C(=O)O; NPrPhe(4-CF3) = CCCN[C@@H](Cc1ccc(C(F)(F)F)cc1)C(=O)O; Abu(4,4,4-F3) = N[C@@H](CC(F)(F)F)C(=O)O; NMeGly(cPent) = CN[C@H](C(=O)O)C1CCCC1; NMeD = CN[C@@H](CC(=O)O)C(=O)O; NMeL = CN[C@@H](CC(C)C)C(=O)O; Morpholide = C1CN(*)CCO1; Ac5c = NC1(C(=O)O)CCCC1; Aze = O=C(O)[C@@H]1CCN1; Sar = CNCC(=O)O

Legend:
[1] = target: GDP-bound NRAS wild-type protein (Homo sapiens, UniProt P01111); test: Binding to NRAS by surface plasmon resonance (SPR), Single Cycle Kinetics
Sequence of GDP-bound NRAS wild-type protein (P01111 whole entry): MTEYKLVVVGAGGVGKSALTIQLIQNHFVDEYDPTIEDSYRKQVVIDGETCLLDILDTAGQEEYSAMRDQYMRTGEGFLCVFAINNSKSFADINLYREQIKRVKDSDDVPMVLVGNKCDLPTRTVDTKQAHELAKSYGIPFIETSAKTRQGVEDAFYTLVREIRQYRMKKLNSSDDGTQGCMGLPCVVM

[2] = target: GDP-bound HRAS wild-type protein (Homo sapiens, UniProt P01112); test: Binding to HRAS by surface plasmon resonance (SPR), Single Cycle Kinetics
Sequence of GDP-bound HRAS wild-type protein (P01112 whole entry): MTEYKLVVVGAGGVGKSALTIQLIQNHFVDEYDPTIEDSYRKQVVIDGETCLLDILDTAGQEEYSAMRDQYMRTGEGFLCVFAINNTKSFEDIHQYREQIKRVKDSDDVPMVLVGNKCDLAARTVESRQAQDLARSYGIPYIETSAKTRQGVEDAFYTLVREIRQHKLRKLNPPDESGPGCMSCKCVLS

[3] = tested on: human lung cancer strain NCI-H441;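 note: cell proliferation inhibition after four days measured by CellTiter-Glo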
[4] = SPR, GDP-bound NRAS wild-type protein vs GDP-bound KRAS wild-type protein
[5] = SPR, GDP-bound HRAS wild-type protein vs GDP-bound KRAS wild-type protein

Row | Compound | NRAS/KRAS (ratio of KD value for NRAS to KD value for KRAS) [1, 4] | HRAS/KRAS (ratio of KD value for HRAS to KD value for KRAS) [2, 5] | IC50 [3] [nM] | NRAS/KRAS (ratio of KD value with respect to GDP-bound NRAS wild-type protein to KD value with respect to KRAS) ([1]; SPR KD ratio NRAS/KRAS, class symbols) | HRAS/KRAS (ratio of KD value with respect to GDP-bound HRAS wild-type protein to KD value with respect to KRAS) ([2]; SPR KD ratio HRAS/KRAS, class symbols) | IC50 ([3]; read-out: NCI-H441 IC50, NCI-H441 cells, four days, CellTiter-Glo) [nM] | NRAS/KRAS (ratio of KD value with respect to NRAS to KD value with respect to KRAS) [1, 4] | HRAS/KRAS (ratio of KD value with respect to HRAS to KD value with respect to KRAS) [2, 5]
1 | CCC[C@H]1C(=O)N[C@@H]([C@@H](C)CC)C(=O)N(C)CC(=O)N(C)[C@H]2C/C=C\CCN(C2=O)[C@@H](Cc2ccc(C)cc2)C(=O)N(C)CC(=O)N[C@@H](CCc2ccc(C(F)(F)F)c(OC)c2)C(=O)N2C[C@H](OCC)C[C@H]2C(=O)NC2(CC(C)(C)C2)C(=O)N(C)[C@@H](CC(F)(F)F)C(=O)N(C)[C@H](C(=O)N(C)C)CC(=O)N1C [PP3007] | A (a compound having 10 or more and less than 20 is denoted as A) | A (a compound having 10 or more and less than 20 is denoted as A) | 63.4 |  |  |  |  | 
2 | CCO[C@@H]1C[C@H]2C(=O)NC3(CCC3)C(=O)N(C)[C@@H](C3CCCC3)C(=O)N(C)[C@H](C(=O)N(C)C)CC(=O)N(CC)[C@@H](CC(C)C)C(=O)N[C@@H]([C@@H](C)CC)C(=O)N(C)CC(=O)N(C)[C@H]3CC(C)=C(C)CN(C3=O)[C@@H](Cc3ccc(C(F)(F)F)cc3)C(=O)N(C)CC(=O)N[C@@H](CCc3cc(F)c(C(F)(F)F)c(F)c3)C(=O)N2C1 [PP1051] | C (A compound having a KD ratio of 0.1 or more and less than 3 is denoted as C) | C (A compound having a KD ratio of 0.1 or more and less than 3 is denoted as C) | 286 |  |  |  |  | 
3 | CCO[C@@H]1C[C@H]2C(=O)NC3(CC(C)(C)C3)C(=O)N(C)[C@@H](C3CCCC3)C(=O)N(C)[C@H](C(=O)N(C)C)CC(=O)N(C)[C@@H](CC(C)C)C(=O)N[C@@H]([C@@H](C)CC)C(=O)N(C)CC(=O)N(C)[C@H]3C/C=C\CCN(C3=O)[C@@H](Cc3ccc(C(C)(F)F)cc3)C(=O)N(C)CC(=O)N[C@@H](CCc3ccc(C(F)(F)F)c(OC)c3)C(=O)N2C1 [PP2690] |  |  |  | AA (a compound having 20 or more is denoted as AA) | A (a compound having 10 or more and less than 20 is denoted as A) | 3 |  | 
4 | CC[C@H](C)[C@@H]1NC(=O)[C@@H](CC(C)C)N(C)C(=O)C[C@@H](C(=O)N(C)C)N(C)C(=O)[C@H](C2CCCC2)N(C)C(=O)C2(CCCC2)NC(=O)[C@@H]2CCCN2C(=O)[C@@H](CCc2ccc(C(F)(F)F)c(Cl)c2)NC(=O)CN(C)C(=O)[C@@H](Cc2ccc(C(F)(F)F)cc2)N2C/C=C\COC[C@@H](C2=O)N(C)C(=O)CN(C)C1=O [PP0626] |  |  | 158 |  |  |  | C (A compound having a KD ratio of 0.1 or more and less than 3 is denoted as C) | C (A compound having a KD ratio of 0.1 or more and less than 3 is denoted as C)
5 | CCCN1C(=O)CN(C)C(=O)[C@@H]2CCN2C(=O)[C@H](CC(F)(F)F)NC(=O)[C@H](CC(C)C)N(C)C(=O)C[C@@H](C(=O)N2CCOCC2)N(C)C(=O)[C@H](C2CCCC2)N(C)C(=O)C2(CCCC2)NC(=O)[C@@H]2CCCN2C(=O)[C@H](CCc2ccc(C(F)(F)F)c(Cl)c2)NC(=O)CN(C)C(=O)[C@@H]1Cc1ccc(C(F)(F)F)cc1 [PP0304] ([NMeL][Abu(4,4,4-F3)][Aze][Sar][NPrPhe(4-CF3)][Sar][hPhe(3-Cl-4-CF3)]P[Ac5c][NMeGly(cPent)][NMeD]-Morpholide; lactam N-11) | B (a compound having 3 or more and less than 10 is denoted as B) | B (a compound having 3 or more and less than 10 is denoted as B) | 112 |  |  |  |  | 
